Structure (SMILES)	melting point [°C]
O=C(OCC1OC(c2ccc(Cl)c(Cc3cc4ccccc4s3)c2)C(OC(=O)c2ccccc2)C(OC(=O)c2ccccc2)C1O)c1ccccc1 (configuration not stated)	215 to 217
CON1CCC(C#N)(NO)CC1	130 to 131
Nc1nc(NCC2CC2)c2ncn(C3C=CC(CO)C3)c2n1 (configuration not stated)	130 to 131
COC(=O)c1cc(N(C)C(C)=O)cc(N(C)C(C)=O)c1	106
CC[Si](CC)(CC)CSc1cc(C(C)(C)C)c(O)c(C(C)(C)C)c1	58 to 60
O=C1CCCCC1C(C[N+](=O)[O-])c1ccc(C(F)(F)F)cc1 (racemic)	107 to 108
Nc1ccccc1SCC(C(=O)O)c1ccc(C(F)(F)F)cc1 (configuration not stated)	138
CCc1cc2c([nH]c1=O)c(C)cc1cc(CBr)oc12	237 to 240
CNC(=O)Nc1nc2c(s1)C(C)(C)CC(C)(C)C2	> 250
CC(=O)c1cc(C)cc(Br)c1O	81 to 82
c1ccc2c(c1)nc1snc(-c3cnccn3)n12	255 to 256
N#Cc1cc(Cc2ccc(Cl)cc2)ccc1N	91.5 to 93
Cc1[nH]c(=O)c2c(ccc3nc(Nc4c(Cl)cccc4Cl)n(C)c32)c1CCO	> 300
CC(=O)OC1CSC(Oc2ccc3ccn(C(=O)OC(C)(C)C)c3c2)C(OC(C)=O)C1OC(C)=O (configuration not stated)	147 to 158
CCOC(=O)c1oc(-c2ccccc2)cc(=O)c1Br	135
O=[N+]([O-])c1ccc(C=Cc2ccc(Cl)c(Cl)c2)cc1O	105 to 106
CCCOc1nc2sc(Cl)cc2c(=S)n1CCC	81 to 83
CCOC(=O)c1c[nH]c2cc(Cl)c(F)c(NCC=O)c2c1=O	213 to 216
CCc1nc2c(C)c(S(=O)(=O)N(C)C)c(C)nc2[nH]1	179 to 182
CCOC(=O)CNC(=O)[C@@H](C)NC(=O)CNC(=O)CSC(=O)c1ccccc1	137
CCc1cn(C2CC(O)C(CNCc3ccccc3)O2)c(=O)[nH]c1=O (configuration not stated)	121 to 124
NCCN1C(=O)c2ccccc2C1(O)c1ccccc1Cl (configuration not stated)	172 to 174
CC1(C)OCC([N+](=O)[O-])CO1	60 to 61
CNC1=NS(=O)(=O)N=C(Oc2ccccc2[N+](=O)[O-])N1C(C)C	242
CC1(O)C(O)C(CO)OC1n1ccc2c(N)ncnc21 (configuration not stated)	222

Now from value to compound:

melting point [°C]	Structure (SMILES)
215 to 217	CC(C)C(=O)Nc1ccnc(-c2ccncc2)n1
82 to 82.5	CN1CCN(c2cccc3ccc(OC(=O)c4ccccc4)cc23)CC1
181 to 182	CCOC(=O)c1ccc(NC(=O)c2ccc3c(c2)OCC(C)(C)CO3)cc1
110 to 111	COC(=O)C(=O)c1ccc(S(=O)(=O)CCOc2ccc3ccccc3c2)cc1
181 to 183	Cc1ccc(NC2=C(C(=O)Nc3ccccc3)C(=O)OC2)cc1
124 to 125	COc1ccc(C(=O)C=CN(C)C)cc1OC
136 to 138	COc1nc(C)cnc1NS(=O)(=O)c1ccccc1I
258 to 260	COc1ccc(-c2c3c(cc4ccc(OC)c(OC)c24)C(=O)NC3)cc1
88 to 90	CC(Nc1nc(-c2ccccc2)cs1)c1ccc(CO)cc1 (configuration not stated)
259	O=C(Cc1ccc(O)cc1)c1c(O)cc(O)cc1O
55 to 58	COC(=O)C1=C(O)CCc2c(OC)cccc21
107 to 108	COc1ccc(CCNc2nccc(-c3cccc(NC(=O)CCN(C)C)c3)n2)cc1OC
138 to 140	Brc1ccc2c3c(cccc13)C(NCCCCCn1ccnc1)=N2
89 to 90	CC(Oc1ccc(F)cc1F)(C(=O)Nc1nccs1)c1ccc(S(C)(=O)=O)cc1 (configuration not stated)
187 to 189	CNC(=S)c1ccncc1C1c2ccccc2CC1(C)C (configuration not stated)
152 to 155	COc1ccc(OCc2c(C)cncc2C)c2[nH]c(C3CC3)nc12
119 to 121	N#Cc1ccc(-c2ccc3ccccc3c2)cc1Cn1cncn1
